29 compounds from patent US10752609B2, “GSK-3 inhibitors” (priority 2016, dated 2020) can be followed below.

Read-outs that look alike come from different tables or passages of the source.

In one assay the test system is pTau. Put plainly: pTau assay (no method described). Type of assay: cell-based.
The target in a further assay is GSK3α (Homo sapiens, UniProt P49840). Put plainly: GSK3α kinase assay (Caliper LabChip3000 mobility shift, fluoresceinated peptide substrate).
For another assay, the target named is GSK3β (Homo sapiens, UniProt P49841). Briefly: GSK3β kinase assay (Caliper LabChip3000 mobility shift, fluoresceinated peptide substrate). Type of assay: biochemical.
Setting [1] is: 250 pM enzyme, 20 uM ATP, 1.5 uM peptide, 20 hours room temperature, first value of cell GSK3β/GSK3α, read-out: GSK3β (nM), IC50.

Chain of GSK3β (P49841 whole entry, species assumed): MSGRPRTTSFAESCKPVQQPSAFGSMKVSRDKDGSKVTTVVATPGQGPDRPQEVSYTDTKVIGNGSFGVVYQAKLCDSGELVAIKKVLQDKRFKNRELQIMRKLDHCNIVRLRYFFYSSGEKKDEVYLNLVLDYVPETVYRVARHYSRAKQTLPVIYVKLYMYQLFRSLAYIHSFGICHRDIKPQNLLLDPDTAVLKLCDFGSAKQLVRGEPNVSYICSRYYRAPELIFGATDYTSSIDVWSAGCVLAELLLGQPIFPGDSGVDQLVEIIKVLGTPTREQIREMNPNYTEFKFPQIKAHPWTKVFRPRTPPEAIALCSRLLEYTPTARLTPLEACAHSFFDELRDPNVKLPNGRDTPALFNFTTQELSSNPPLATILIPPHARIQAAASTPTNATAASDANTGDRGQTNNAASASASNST
Chain of GSK3α (P49840 whole entry, species assumed): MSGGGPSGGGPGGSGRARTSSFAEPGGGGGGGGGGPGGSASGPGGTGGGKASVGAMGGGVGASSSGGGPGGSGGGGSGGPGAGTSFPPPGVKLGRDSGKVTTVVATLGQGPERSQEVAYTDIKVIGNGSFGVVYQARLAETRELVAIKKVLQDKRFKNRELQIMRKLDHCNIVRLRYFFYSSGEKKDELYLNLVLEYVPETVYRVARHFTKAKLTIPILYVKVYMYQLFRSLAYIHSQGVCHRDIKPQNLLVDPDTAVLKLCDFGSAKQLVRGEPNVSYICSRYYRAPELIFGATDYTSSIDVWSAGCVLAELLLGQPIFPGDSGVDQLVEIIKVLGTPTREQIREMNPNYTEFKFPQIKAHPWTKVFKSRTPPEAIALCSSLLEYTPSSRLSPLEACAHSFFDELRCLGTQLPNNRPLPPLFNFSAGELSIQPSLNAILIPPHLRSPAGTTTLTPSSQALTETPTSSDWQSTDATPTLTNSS
Description for GSK3α: The kinase assay was performed in V-bottom 384-well plates. […] The reaction was incubated at room temperature for 20 hours and terminated by adding 45 μl of 35 mM EDTA to each sample. The reaction mixture was analyzed on the Caliper LabChip3000 (Caliper, Hopkinton, Mass.) by electrophoretic separation of the unphosphorylated substrate and phosphorylated product. […] Compounds were dissolved at 10 mM in dimethylsulfoxide (DMSO) and evaluated at eleven concentrations. IC50 values were derived by non-linear regression analysis.

With `O=C(Nc1cnccc1-c1ccc(F)cc1)c1ccnc(Nc2ccc(OC(F)(F)F)cc2)n1` [Example 48, N-(4-(4-Fluorophenyl)pyridin-3-yl)-2-((4-(trifluoromethoxy)phenyl)amino)pyrimidine-4-carboxamide], the values for the IC50 with pTau, at GSK3α and on GSK3β (setting [1]) were 170 nM, 1.3 nM and 1.5 nM, respectively.

Take `O=C(Nc1cnccc1-c1ccc(F)cc1)c1ccnc(Nc2ccc(F)cc2)n1` [Example 44, 2-((4-Fluorophenyl)amino)-N-(4-(4-fluorophenyl)pyridin-3-yl)pyrimidine-4-carboxamide]: the IC50 (in general, the concentration needed to halve the response being measured) came to 34 nM in the assay on pTau, 0.46 nM at GSK3α and 0.26 nM at GSK3β (setting [1]).

For the compound `O=C(Nc1cnccc1OCC(F)(F)F)c1ccnc(NCc2cc(C(F)(F)F)cc(C(F)(F)F)c2)n1` [Example 144, 2-((3,5-Bis(trifluoromethyl)benzyl)amino)-N-(4-(2,2,2-trifluoroethoxy)pyridin-3-yl)pyrimidine-4-carboxamide], the results for the IC50 in the assay on pTau, at GSK3α and on GSK3β (setting [1]) were 10000 nM, 200 nM and 210 nM, respectively.

In the case of `O=C(Nc1cnccc1-c1ccccc1)c1ccnc(Nc2cnn(-c3cc(F)ccc3F)c2)n1` [Example 159, 2-((1-(2,5-Difluorophenyl)-1H-pyrazol-4-yl)amino)-N-(4-phenylpyridin-3-yl)pyrimidine-4-carboxamide], the IC50 with pTau was 390 nM; on GSK3α, 1.9 nM; at GSK3β (setting [1]), 7.2 nM.

Take `O=C(Nc1cncnc1OCC(F)(F)F)c1ccnc(NCC2CCC2)n1` [Example 188, 2-((Cyclobutylmethyl)amino)-N-(4-(2,2,2-trifluoroethoxy)pyrimidin-5-yl)pyrimidine-4-carboxamide]: the IC50 with pTau was found to be 180 nM; on GSK3α, 1 nM; on GSK3β it was 0.83 nM.

`O=C(Nc1cnc(F)cc1N1CCOCC1)c1ccnc(NC2COC2)n1` [Example 175, N-(6-Fluoro-4-morpholinopyridin-3-yl)-2-(oxetan-3-ylamino)pyrimidine-4-carboxamide]: the IC50 with pTau came to 2100 nM; on GSK3α, 27 nM; on GSK3β (setting [1]), 46 nM.

For the compound `CN(C)c1ccc(Nc2nccc(C(=O)Nc3cnccc3-c3ccccc3)n2)cn1` [Example 93, 2-((6-(Dimethylamino)pyridin-3-yl)amino)-N-(4-phenylpyridin-3-yl)pyrimidine-4-carboxamide], the IC50 is 390 nM in the assay with pTau, 3.1 nM at GSK3α and 4.3 nM at GSK3β (setting [1]).

`O=C(Nc1cnccc1-c1ccccc1)c1ccnc(Nc2ccccc2)n1` [Example 4, 2-(Phenylamino)-N-(4-phenylpyridin-3-yl)pyrimidine-4-carboxamide]: the values for the IC50 in the assay on pTau, on GSK3α and at GSK3β (setting [1]) were 104 nM, 0.31 nM and 0.43 nM, respectively.

Turning to `O=C(Nc1cnccc1CN1CCCC1)c1ccnc(Nc2ccc(OC(F)F)nc2)n1` [Example 81, 2-((6-(Difluoromethoxy)pyridin-3-yl)amino)-N-(4-(pyrrolidin-1-ylmethyl)pyridin-3-yl)pyrimidine-4-carboxamide], the values for the IC50 with pTau, on GSK3α and on GSK3β (setting [1]) were 520 nM, 6.6 nM and 9.8 nM, respectively.

Regarding `N#Cc1ccc(Nc2nccc(C(=O)Nc3cnc(F)cc3N3CCOCC3)n2)cc1` [Example 174, 2-((4-Cyanophenyl)amino)-N-(6-fluoro-4-morpholinopyridin-3-yl)pyrimidine-4-carboxamide], the IC50 in the assay with pTau is 54 nM; on GSK3α, 1.6 nM; at GSK3β (setting [1]), 1.1 nM.

Turning to `CC(C)Nc1nccc(C(=O)Nc2cnccc2OCC(F)(F)F)n1` [Example 120, 2-(Isopropylamino)-N-(4-(2,2,2-trifluoroethoxy)pyridin-3-yl)pyrimidine-4-carboxamide], the IC50 was 26 nM in the assay on pTau, 1.4 nM at GSK3α and 0.44 nM at GSK3β (setting [1]).

With `O=C(Nc1cnccc1-c1ccccc1)c1ccnc(Nc2ccc(OC(F)(F)F)cc2)n1` [Example 12, N-(4-Phenylpyridin-3-yl)-2-((4-(trifluoromethoxy)phenyl)amino)pyrimidine-4-carboxamide], the IC50 is 210 nM in the assay on pTau, 0.9 nM at GSK3α and 1.9 nM on GSK3β (setting [1]).

Consider `Cc1ccc(Nc2nccc(C(=O)Nc3cncc(-c4ccccc4F)c3)n2)cn1` [Example 103, N-(5-(2-Fluorophenyl)pyridin-3-yl)-2-((6-methylpyridin-3-yl)amino)pyrimidine-4-carboxamide], for which the IC50 in the assay on pTau is 510 nM; on GSK3α, 1.3 nM; on GSK3β (setting [1]) it was 3.1 nM.

Turning to `CN(C)CCOc1ccc(Nc2nccc(C(=O)Nc3cnccc3-c3ccccc3)n2)cn1` [Example 96, 2-((6-(2-(Dimethylamino)ethoxy)pyridin-3-yl)amino)-N-(4-phenylpyridin-3-yl)pyrimidine-4-carboxamide], the figures for the IC50 with pTau, on GSK3α and on GSK3β (setting [1]) were 900 nM, 11 nM and 18 nM, respectively.

Consider `O=C(Nc1cnc(F)cc1N1CCC(F)(F)CC1)c1ccnc(Nc2ccccc2)n1` [Example 177, N-(4-(4,4-Difluoropiperidin-1-yl)-6-fluoropyridin-3-yl)-2-(phenylamino)pyrimidine-4-carboxamide], for which the IC50 with pTau was 60 nM; on GSK3α, 0.41 nM; on GSK3β (setting [1]) it was 0.47 nM.

Consider `O=C(Nc1cnccc1-c1ccccc1)c1ccnc(Nc2ccc(Cl)cc2F)n1` [Example 26, 2-((4-Chloro-2-fluorophenyl)amino)-N-(4-phenylpyridin-3-yl)pyrimidine-4-carboxamide], for which the IC50 with pTau came to 110 nM; at GSK3α, 0.33 nM; on GSK3β (setting [1]), 0.57 nM.

`Cc1ccc(Nc2nccc(C(=O)Nc3cnccc3-c3ccccc3)n2)cn1` [Example 89, 2-((6-Methylpyridin-3-yl)amino)-N-(4-phenylpyridin-3-yl)pyrimidine-4-carboxamide]: the IC50 in the assay on pTau stood at 73 nM; at GSK3α, 1.5 nM; on GSK3β (setting [1]), 3 nM.

For the compound `O=C(Nc1cnc(F)cc1N1CCOCC1)c1ccnc(Nc2cccc(OC(F)(F)F)c2)n1` [Example 172, N-(6-Fluoro-4-morpholinopyridin-3-yl)-2-((3-(trifluoromethoxy)phenyl)amino)pyrimidine-4-carboxamide], the IC50 in the assay on pTau was determined as 160 nM; on GSK3α it was 0.46 nM; at GSK3β (setting [1]), 0.89 nM.

`O=C(Nc1cncnc1)c1ccnc(N[C@H]2C[C@@H]2c2ccccc2)n1` [Example 202, 2-(((1S,2R)-2-Phenylcyclopropyl)amino)-N-(pyrimidin-5-yl)pyrimidine-4-carboxamide]: the IC50 with pTau was found to be 2300 nM; at GSK3α it was 57 nM; at GSK3β (setting [1]) it was 120 nM.

In the case of `CNc1nccc(C(=O)Nc2cnccc2-c2ccc(F)cc2F)n1` [Example 158, N-(4-(2,4-Difluorophenyl)pyridin-3-yl)-2-(methylamino)pyrimidine-4-carboxamide], the IC50 with pTau was determined as 96 nM; at GSK3α, 1.9 nM; at GSK3β (setting [1]), 2.4 nM.

For `O=C(Nc1cnccc1-c1ccccc1)c1ccnc(Nc2ccc(C(F)(F)F)cc2)n1` [Example 9, N-(4-Phenylpyridin-3-yl)-2-((4-(trifluoromethyl)phenyl)amino)pyrimidine-4-carboxamide], the values for the IC50 with pTau, on GSK3α and on GSK3β (setting [1]) were 240 nM, 1.2 nM and 2 nM, respectively.

Regarding `O=C(Nc1cnccc1OCC(F)(F)F)c1ccnc(NC2CCCC2)n1` [Example 116, 2-(Cyclopentylamino)-N-(4-(2,2,2-trifluoroethoxy)pyridin-3-yl)pyrimidine-4-carboxamide], the IC50 is 12 nM in the assay with pTau, 0.16 nM at GSK3α and 0.19 nM on GSK3β (setting [1]).

Consider `O=C(Nc1cncnc1N1CCOCC1)c1ccnc(NCC2CCOCC2)n1` [Example 206, N-(4-Morpholinopyrimidin-5-yl)-2-(((tetrahydro-2H-pyran-4-yl)methyl)amino)pyrimidine-4-carboxamide], for which the IC50 in the assay on pTau worked out at 4700 nM; at GSK3α, 99 nM; at GSK3β (setting [1]) it was 74 nM.

`COc1cc(Nc2nccc(C(=O)Nc3cnccc3-c3ccccc3)n2)ccn1` [Example 37, 2-((2-Methoxypyridin-4-yl)amino)-N-(4-phenylpyridin-3-yl)pyrimidine-4-carboxamide]: the IC50 in the assay with pTau was determined as 33 nM; at GSK3α it was 0.51 nM; at GSK3β (setting [1]), 0.54 nM.

On to `Cn1cnc(Nc2nccc(C(=O)Nc3cnccc3-c3ccccc3)n2)c1` [Example 102, 2-((1-Methyl-1H-imidazol-4-yl)amino)-N-(4-phenylpyridin-3-yl)pyrimidine-4-carboxamide], for which the IC50 was 10000 nM with pTau, 170 nM on GSK3α and 260 nM at GSK3β (setting [1]).

As for `O=C(Nc1cnc(F)cc1N1CCOCC1)c1ccnc(Nc2ccc(Cl)c(F)c2)n1` [Example 169, 2-((4-Chloro-3-fluorophenyl)amino)-N-(6-fluoro-4-morpholinopyridin-3-yl)pyrimidine-4-carboxamide], the results for the IC50 in the assay on pTau, on GSK3α and at GSK3β (setting [1]) were 34 nM, 0.15 nM and 0.27 nM, respectively.

For the compound `O=C(Nc1cncnc1)c1ccnc(Nc2cccc(-c3ccc(Cl)cc3)c2)n1` [Example 193, 2-((4′-Chloro-[1,1′-biphenyl]-3-yl)amino)-N-(pyrimidin-5-yl)pyrimidine-4-carboxamide], the IC50 was determined as 620 nM with pTau, 1.8 nM at GSK3α and 3.4 nM at GSK3β (setting [1]).

`O=C(Nc1cnccc1OCC(F)(F)F)c1ccnc(Nc2ccc(C(F)(F)F)cn2)n1` [Example 111, N-(4-(2,2,2-Trifluoroethoxy)pyridin-3-yl)-2-((5-(trifluoromethyl)pyridin-2-yl)amino)pyrimidine-4-carboxamide]: the IC50 was 220 nM with pTau, 2.2 nM at GSK3α and 2.9 nM at GSK3β (setting [1]).

As to `O=C(Nc1cnccc1-c1ccccc1F)c1ccnc(Nc2ccc3ccccc3c2)n1` [Example 154, N-(4-(2-Fluorophenyl)pyridin-3-yl)-2-(naphthalen-2-ylamino)pyrimidine-4-carboxamide], the IC50 amounted to 100 nM with pTau, 0.7 nM on GSK3α and 1.4 nM on GSK3β (setting [1]).
